In patent US12398107B2, “Fungicidal nitroanilino substituted pyrazoles” (FMC Corporation, priority 2018, dated 2025):

How the values were obtained:
Format in all cases: in vivo
Phakopsora pachyrhizi = test: Test D: Asian soybean rust, preventive spray on soybean seedlings; details: 50 ppm, 100 = 100% disease control, 0 = no control
Text: General protocol for preparing test suspensions for Tests A-F: the test compounds were first dissolved in acetone in an amount equal to 3% of the final volume and then suspended at the desired concentration (in ppm) in acetone and purified water (50/50 mix by volume) containing 250 ppm of the surfactant PEG400 (polyhydric alcohol esters). The resulting test suspensions were then used in Tests A-F.
The test solution was sprayed to the point of run-off on soybean seedlings. The following day the seedlings were inoculated with a spore suspension of Phakopsora pachyrhizi (the causal agent of Asian soybean rust) and incubated in a saturated atmosphere at 22° C. for 24 h and then moved to a growth chamber at 22° C. for 8 days, after which time visual disease ratings were made.
A rating of 100 indicates 100% disease control and a rating of 0 indicates no disease control (relative to the controls). A dash (-) indicates the compound was not tested.

[1] = tested on: Puccinia recondita f. sp. tritici; test: Test B: wheat leaf rust, preventive spray on wheat seedlings; details: 50 ppm, 100 = 100% disease control, 0 = no control relative to controls
Text: General protocol for preparing test suspensions for Tests A-F: the test compounds were first dissolved in acetone in an amount equal to 3% of the final volume and then suspended at the desired concentration (in ppm) in acetone and purified water (50/50 mix by volume) containing 250 ppm of the surfactant PEG400 (polyhydric alcohol esters). The resulting test suspensions were then used in Tests A-F. The test solution was sprayed to the point of run-off on wheat seedlings. The following day the seedlings were inoculated with a spore suspension of Puccinia recondita f. sp. tritici (the causal agent of wheat leaf rust) and incubated in a saturated atmosphere at 20° C. for 24 h, and then moved to a growth chamber at 20° C. for 7 days, after which time disease ratings were made. A rating of 100 indicates 100% disease control and a rating of 0 indicates no disease control (relative to the controls). A dash (-) indicates the compound was not tested.

Septoria tritici = test: Test A: wheat leaf blotch, preventive spray on wheat seedlings; details: 50 ppm, 100 = 100% disease control, 0 = no control relative to controls
Text: General protocol for preparing test suspensions for Tests A-F: the test compounds were first dissolved in acetone in an amount equal to 3% of the final volume and then suspended at the desired concentration (in ppm) in acetone and purified water (50/50 mix by volume) containing 250 ppm of the surfactant PEG400 (polyhydric alcohol esters). The resulting test suspensions were then used in Tests A-F. The test solution was sprayed to the point of run-off on wheat seedlings. The following day the seedlings were inoculated with a spore suspension of Septoria tritici (the causal agent of wheat leaf blotch) and incubated in a saturated atmosphere at 24° C. for 48 h, and then moved to a growth chamber at 20° C. for 17 days, after which time disease ratings were made. A rating of 100 indicates 100% disease control and a rating of 0 indicates no disease control (relative to the controls). A dash (-) indicates the compound was not tested.

[2] = tested on: Blumeria graminis f. sp. tritici; test: Test C: wheat powdery mildew, preventive spray on wheat seedlings; details: 50 ppm, rated after 8 days, 100 = 100% disease control, 0 = no control
Text: General protocol for preparing test suspensions for Tests A-F: the test compounds were first dissolved in acetone in an amount equal to 3% of the final volume and then suspended at the desired concentration (in ppm) in acetone and purified water (50/50 mix by volume) containing 250 ppm of the surfactant PEG400 (polyhydric alcohol esters). The resulting test suspensions were then used in Tests A-F. The test suspension was sprayed to the point of run-off on wheat seedlings. The following day the seedlings were inoculated with a spore dust of Blumeria graminis f. sp. tritici, (also known as Erysiphe graminis f. sp. tritici, the causal agent of wheat powdery mildew) and incubated in a growth chamber at 20° C. for 8 days, after which time visual disease ratings were made. A rating of 100 indicates 100% disease control and a rating of 0 indicates no disease control (relative to the controls). A dash (-) indicates the compound was not tested.

Alternaria solani = test: Test F: tomato early blight, preventive spray on tomato seedlings; details: 50 ppm, 100 = 100% disease control, 0 = no control
Text: (§1) General protocol for preparing test suspensions for Tests A-F: the test compounds were first dissolved in acetone in an amount equal to 3% of the final volume and then suspended at the desired concentration (in ppm) in acetone and purified water (50/50 mix by volume) containing 250 ppm of the surfactant PEG400 (polyhydric alcohol esters). The resulting test suspensions were then used in Tests A-F. The test suspension was sprayed to the point of run-off on tomato seedlings. The following day the seedlings were inoculated with a spore suspension of Alternaria solani (the causal agent of tomato early blight) and incubated in a saturated atmosphere at 27° C. for 48 h, and then moved to a growth chamber at 20° C. for 3 days, after which time visual disease ratings were made. A rating of 100 indicates 100% disease control and a rating of 0 indicates no disease control (relative to the controls). A dash (-) indicates the compound was not tested.

Botrytis cinerea = test: Test E: tomato Botrytis, preventive spray on tomato seedlings; details: 50 ppm, 100 = 100% disease control, 0 = no control
Text: as §1, with “Botrytis cinerea” for “Alternaria solani”, “Botrytis)” for “early blight)”, “20°” for “27°”, “24°” for “20°”

Row | SMILES | Test D disease control rating (Asian soybean rust) (Phakopsora pachyrhizi) | Test B disease control rating (wheat leaf rust) [1] | Test A disease control rating (wheat leaf blotch) (Septoria tritici) | Test C disease control rating (wheat powdery mildew) [2] | Test F disease control rating (tomato early blight) (Alternaria solani) | Test E disease control rating (tomato Botrytis) (Botrytis cinerea)
1 | Cc1nn(C)c(Nc2ccc(OCC#N)cc2[N+](=O)[O-])c1-c1ccc(F)cc1Cl [Compound 29] | 81% | 98% | 97% | 87% | 26% | 99%
2 | COc1ccc(-c2c(C)nn(C)c2Nc2c(Cl)cc(Cl)cc2[N+](=O)[O-])c(Cl)c1 [Compound 65] | 66% | 89% | 94% | 56% | 46% | 16%
3 | Cc1nn(C)c(Nc2ccc(OCC(F)F)cc2[N+](=O)[O-])c1-c1ccc(F)cc1Cl [Compound 36] | 25% | 89% | 100% | 56% | 0% | 100%
4 | Cc1nn(C)c(Nc2c(F)cc(F)cc2[N+](=O)[O-])c1-c1c(F)cccc1Cl [Compound 39] | 73% | 100% | 100% | 99% | 99% | 88%
5 | COc1cc(F)c(Nc2c(-c3ccc(Cl)cc3Cl)c(C)nn2C)c([N+](=O)[O-])c1 [Compound 138] | 67% | 100% | 100% | 93% | 100% | 99%
6 | Cc1nn(C)c(Nc2c(Cl)cc(Cl)cc2[N+](=O)[O-])c1-c1ccc(Cl)cc1Cl [Compound 146] | 0% | 98% | 97% | 0% | 40% | 0%
7 | COc1ccc(Nc2c(-c3ccc(C#N)cc3F)c(C)nn2C)c([N+](=O)[O-])c1 [Compound 179] | 0% | 96% | 100% | 93% | 85% | 99%
8 | COc1ccc(Nc2c(-c3c(F)cc(F)cc3Br)c(C)nn2C)c([N+](=O)[O-])c1 [Compound 164] | 0% | 100% | 100% | 98% | 99% | 100%
9 | Cn1nc(C#N)c(-c2ccc(F)cc2Cl)c1Nc1c(F)cccc1[N+](=O)[O-] [Compound 122] | 0% | 100% | 100% | 94% | 99% | 100%
10 | Cc1nn(C)c(Nc2cc(Cl)ccc2[N+](=O)[O-])c1-c1ccc(F)cc1Cl [Compound 130] | 0% | 86% | 85% | 20% | 0% | 85%
11 | Cc1cccc([N+](=O)[O-])c1Nc1c(-c2ccc(F)cc2Cl)c(C)nn1C [Compound 117] | 0% | 100% | 99% | 95% | 76% | 99%
12 | Cc1nn(C)c(Nc2ccccc2[N+](=O)[O-])c1-c1c(F)cc(F)cc1F [Compound 149] | 0% | 80% | 100% | 97% | 96% | 99%
13 | Cc1nn(C)c(Nc2ccc(Cl)cc2[N+](=O)[O-])c1-c1c(F)cccc1Cl [Compound 22] | 0% | 93% | 100% | 97% | 64% | 99%
14 | COc1ccc(-c2c(C)nn(C)c2Nc2c(Cl)cc(C)cc2[N+](=O)[O-])c(Cl)c1 [Compound 66] | 97% | 100% | 100% | 98% | 96% | 98%
15 | COc1cc(F)c(-c2c(C)nn(C)c2Nc2ccc(F)cc2[N+](=O)[O-])c(F)c1 [Compound 83] | 0% | 91% | 99% | 99% | 99% | 98%
